# Test results as given in patent US9181231B2, “Pyruvate kinase activators for use for increasing lifetime of the red blood cells and treating anemia” (AGIOS PHARMACEUTICALS, INC, priority 2011, dated 2015).
# Legend:
# Assay type in all cases: biochemical
# Conditions in all cases: compound at 1 μM
# [1] = target: PKR R510Q (Homo sapiens, UniProt P30613, R510Q); test: PKR R510Q Single Point Percent Activation Assay
# Experimental: PKR R510Q Single Point Percent Activation Assay
# (§1) A compound described herein was diluted with DMSO and tested at 1 μM concentration. The enzyme was diluted in 1× Buffer: (100 mM KCl, 50 mM Tris 7.5, 5 mM MgCl2, 1 mM DTT, 0.03% BSA). 2 μL of compound solution was first added into wells, and then 180 μL of enzyme solution was added. Assays were assembled except for ADP, and plates were stored for 60 minutes at RT. 20 μL ADP was added to start the assay and assay output was evaluated using OD340 at SpectraMax. The assay was run at room temperature.
# PKR R510Q (40 ng/well), Tris pH 7.5 (50 mM), KCl (100 mM), MgCl2 (5 mM), ADP (0.2 mM), PEP (0.11 mM), NADH (180 μM), LDH (0.5 units, Sigma 59023), DTT (1 mM) and BSA (0.03%).
# [2] = target: PKR R532W (Homo sapiens, UniProt P30613, R532W); test: PKR R532W Single Point Percent Activation Assay
# PKR R532W, sequence (P30613 whole entry R532W): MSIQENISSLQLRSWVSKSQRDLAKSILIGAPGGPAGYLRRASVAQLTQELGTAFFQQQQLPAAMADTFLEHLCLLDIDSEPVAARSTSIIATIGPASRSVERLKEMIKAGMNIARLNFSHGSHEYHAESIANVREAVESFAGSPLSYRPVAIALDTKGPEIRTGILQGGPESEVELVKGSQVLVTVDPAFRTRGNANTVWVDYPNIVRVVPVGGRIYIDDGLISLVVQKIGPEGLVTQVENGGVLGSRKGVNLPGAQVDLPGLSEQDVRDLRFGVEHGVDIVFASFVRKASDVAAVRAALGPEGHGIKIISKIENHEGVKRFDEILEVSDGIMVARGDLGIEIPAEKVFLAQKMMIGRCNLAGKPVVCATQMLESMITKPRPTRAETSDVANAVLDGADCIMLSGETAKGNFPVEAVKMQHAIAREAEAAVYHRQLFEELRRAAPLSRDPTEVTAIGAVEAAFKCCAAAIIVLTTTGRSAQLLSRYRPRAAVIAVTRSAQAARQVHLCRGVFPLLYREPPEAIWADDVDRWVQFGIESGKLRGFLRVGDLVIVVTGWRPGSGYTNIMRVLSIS
# Experimental: PKR R532W Single Point Percent Activation Assay
# as §1
# PKR R532W (100 ng/well), Tris pH 7.5 (50 mM), KCl (100 mM), MgCl2 (5 mM), ADP (0.36 mM), PEP (0.1 mM), NADH (180 μM), LDH (0.5 units, Sigma 59023), DTT (1 mM) and BSA (0.03%).
# [3] = tested on: PKR T384W; test: PKR T384W Single Point Percent Activation Assay
# Experimental: PKR T384W Single Point Percent Activation Assay
# A compound described herein was diluted with DMSO and tested at 1 μM concentration. The enzyme was diluted in 1× Buffer: (100 mM KCl, 50 mM Tris 7.5, 5 mM MgCl2, 1 mM DTT, 0.03% BSA). 2 μL of compound solution was first added into wells, and then 180 μL enzyme solution was added. Assays were assembled except for ADP, and plates were stored for 60 minutes at RT. 20 μL ADP was added to start the assay and assay output was evaluated using OD340 at SpectraMax. The assay was run at room temperature.
# PKR T384W soluble (300 ng/well), Tris pH 7.5 (50 mM), KCl (100 mM), MgCl2 (5 mM), ADP (0.08 mM), PEP (0.23 mM), NADH (180 μM), LDH (0.5 units, Sigma 59023), DTT (1 mM) and BSA (0.03%).
# [4] = target: PKR wt (Homo sapiens, UniProt P30613); test: PKR Wide Type Single Point Percent Activation Assay
# PKR wt, sequence (P30613 whole entry): as the sequence (P30613 whole entry R532W) above, with W532R counted along it
# Experimental: PKR Wide Type Single Point Percent Activation Assay
# as §1
# PKR wt (100 ng/well), Tris pH 7.5 (50 mM), KCl (100 mM), MgCl2 (5 mM), ADP (0.48 mM), PEP (0.15 mM), NADH (180 μM), LDH (0.5 units, Sigma 59023), DTT (1 mM) and BSA (0.03%).
# PKR R510Q, sequence (P30613 whole entry R510Q): as the sequence (P30613 whole entry R532W) above, with R510Q, W532R counted along it
Compound,% Act. R510Q [1],% Act. R532W [2],% Act. T384W [3],% Act. WT [4]
CN1c2cc(S(=O)(=O)Nc3cccc(F)c3)ccc2OC(=O)[C@@H]1Cc1ccccc1,B (a % activation at 1 μM of from 101 to 500),A (a % activation at 1 μM of from 1 to 100),B (a % activation at 1 μM of from 101 to 500),B (a % activation at 1 μM of from 101 to 500)
CN1c2ccc(S(=O)(=O)Nc3cccc(F)c3)cc2NC(=O)C1Cc1ccccc1 (stereo not shown),B (a % activation at 1 μM of from 101 to 500),B (a % activation at 1 μM of from 101 to 500),B (a % activation at 1 μM of from 101 to 500),B (a % activation at 1 μM of from 101 to 500)
O=C1Oc2ccc(S(=O)(=O)Nc3ccc(F)c(Cl)c3)cc2CN1Cc1ccccc1,B (a % activation at 1 μM of from 101 to 500),B (a % activation at 1 μM of from 101 to 500),B (a % activation at 1 μM of from 101 to 500),B (a % activation at 1 μM of from 101 to 500)
O=C1Nc2cc(S(=O)(=O)Nc3cccc(F)c3)ccc2NC1Cc1ccccc1 (stereo not shown),B (a % activation at 1 μM of from 101 to 500),B (a % activation at 1 μM of from 101 to 500),B (a % activation at 1 μM of from 101 to 500),B (a % activation at 1 μM of from 101 to 500)
CN1C(=O)COc2ccc(S(=O)(=O)Nc3ccc(F)c(Cl)c3)cc21,B (a % activation at 1 μM of from 101 to 500),B (a % activation at 1 μM of from 101 to 500),B (a % activation at 1 μM of from 101 to 500),B (a % activation at 1 μM of from 101 to 500)
O=C1CN(Cc2ccccc2)c2cc(S(=O)(=O)Nc3cccc(Cl)c3)ccc2O1,B (a % activation at 1 μM of from 101 to 500),A (a % activation at 1 μM of from 1 to 100),A (a % activation at 1 μM of from 1 to 100),A (a % activation at 1 μM of from 1 to 100)
O=C(c1c(F)cccc1F)N1CCN(S(=O)(=O)c2ccc3c(c2)OCCO3)CC1,B (a % activation at 1 μM of from 101 to 500),B (a % activation at 1 μM of from 101 to 500),B (a % activation at 1 μM of from 101 to 500),B (a % activation at 1 μM of from 101 to 500)
